Reference: patent US8716246B2, “Azuvirin peptides” (The Regents of the University of California, priority 2011, dated 2014)
Read-outs that look alike come from different tables or passages of the source. Bridge positions count the residues as written; N and C are the ends. Square brackets hold non-standard residues; d marks the D form. Peptide text beside a SMILES is read from it. Oic = O=C(O)[C@@H]1C[C@@H]2CCCC[C@@H]2N1; Cha = N[C@@H](CC1CCCCC1)C(=O)O; Tle = CC(C)(C)[C@H](N)C(=O)O

Assays:
rhEphB4 = target: T1, rhEphB4 (Homo sapiens, UniProt P54760); experiment: SPR binding to immobilized rhEphB4 (Biacore 3000)
T1 construct: purchased R&D Systems, Inc., Minneapolis, Minn
T1 sequence (P54760 16-987): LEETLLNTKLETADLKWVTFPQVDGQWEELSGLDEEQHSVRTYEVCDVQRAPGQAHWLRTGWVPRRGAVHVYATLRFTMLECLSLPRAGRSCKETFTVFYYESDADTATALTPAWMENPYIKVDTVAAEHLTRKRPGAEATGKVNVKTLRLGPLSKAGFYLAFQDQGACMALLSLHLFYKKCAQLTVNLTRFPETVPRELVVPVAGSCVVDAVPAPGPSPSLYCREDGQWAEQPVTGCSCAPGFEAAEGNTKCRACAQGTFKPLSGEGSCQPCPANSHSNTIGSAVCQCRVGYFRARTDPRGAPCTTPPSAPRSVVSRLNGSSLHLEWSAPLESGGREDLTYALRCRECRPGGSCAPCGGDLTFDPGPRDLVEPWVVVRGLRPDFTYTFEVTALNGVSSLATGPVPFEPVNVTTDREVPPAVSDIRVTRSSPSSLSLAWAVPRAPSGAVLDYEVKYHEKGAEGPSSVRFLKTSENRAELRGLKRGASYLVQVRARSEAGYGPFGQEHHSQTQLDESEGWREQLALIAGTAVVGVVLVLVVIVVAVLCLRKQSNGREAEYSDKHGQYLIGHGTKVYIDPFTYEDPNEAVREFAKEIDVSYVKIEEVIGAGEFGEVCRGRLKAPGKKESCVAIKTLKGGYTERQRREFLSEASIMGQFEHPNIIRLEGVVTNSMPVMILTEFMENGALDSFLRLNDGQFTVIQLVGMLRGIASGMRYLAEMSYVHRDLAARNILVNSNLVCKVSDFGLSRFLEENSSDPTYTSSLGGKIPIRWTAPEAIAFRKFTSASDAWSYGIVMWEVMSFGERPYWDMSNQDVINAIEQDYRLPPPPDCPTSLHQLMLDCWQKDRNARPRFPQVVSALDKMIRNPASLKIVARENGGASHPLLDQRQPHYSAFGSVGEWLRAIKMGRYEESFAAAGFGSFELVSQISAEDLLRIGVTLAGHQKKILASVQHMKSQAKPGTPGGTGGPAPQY
Procedure: (§1) Binding to selected ephrin receptors was measured by surface plasmon resonance on a Biacore3000 instrument. Commercially available ephrin receptors: EphA2, EphB2 and EphB4 (R&D Systems) were immobilized on a CM-5 chip by amine coupling and tested peptides were passed over a chip surface as analytes.
(§2) Binding studies. Binding studies were performed by surface plasmon resonance (SPR) on a BIAcore 3000 system (BiaCore AB, Piscataway, N.J.). BIAcore CM5 sensor chips were utilized in all experiments. Binding studies were performed in HBS-EP running buffer (pH=7.4) containing 10 mM HEPES, 150 mM NaCl, 3 mM EDTA, and 0.005% polysorbate 20. Commercially available ephrin receptors: EphA2, EphB2 and EphB4 (R&D Systems, Inc., Minneapolis, Minn.) were immobilized on a CM5 sensor chip using the amine coupling method. The chip was activated by mixing 400 mM N-ethyl-N-(3-dimethylaminopropyl)-carbodiimide hydrochloride and 100 mM N-hydroxysuccinimide. Residual reactive groups on the chip surface were blocked using 1.0 M ethanolamine/HCl (pH=8.5). The flow cell-1 chip, which served as a control, lacked immobilized protein but was treated with N-ethyl-N-(3-dimethylaminopropyl)-carbodiimide hydrochloride, N hydroxysuccinimide, and ethanolamine/HCl. Binding signals were corrected for nonspecific binding by subtracting the flow cell-1 signal (blank surface). To regenerate chip surfaces, bound ligands were removed with 10 mM HCl. Data were analyzed with BIAevaluation 4.1 software (Biacore, Piscataway, N.J.).

rhEphB2/Fc = rhEphB2/Fc (Homo sapiens, UniProt P29323); experiment: SPR binding to immobilized rhEphB2/Fc (Biacore 3000); parameters: Fc; purchased R&D Systems, Inc., Minneapolis, Minn
Procedure: as §1, §2

rhEphA2 = rhEphA2 (Homo sapiens, UniProt P29317); experiment: SPR binding to immobilized rhEphA2 (Biacore 3000); parameters: purchased R&D Systems, Inc., Minneapolis, Minn
Procedure: as §1, §2

SMILES	Kd (rhEphB4; SPR, averaged from at least 4 independent experiments, read-out: KD ± SEM, rhEphB4)	Kd (rhEphB2/Fc; SPR, averaged from at least 4 independent experiments, read-out: KD ± SEM, rhEphB2/Fc)	Kd (rhEphA2; SPR, averaged from at least 4 independent experiments, read-out: KD ± SEM, rhEphA2)	Kd (rhEphB4)	Kd (rhEphB2/Fc)	Kd (rhEphA2)
C[C@@H](O)[C@@H]1NC(=O)[C@H](CCCNC(=N)N)NC(=O)[C@H](Cc2c[nH]cn2)NC(=O)CNC(=O)[C@@H]2C[C@@H]3CCCC[C@@H]3N2C(=O)[C@H](CC2CCCCC2)NC(=O)[C@H](C(C)(C)C)NC(=O)[C@@H](NC(=O)[C@H](CC2CCCCC2)NC(=O)[C@H](CC2CCCCC2)NC(=O)[C@H](CCCCN)NC(=O)[C@@H](N)Cc2ccc(O)cc2)CSSC[C@@H](C(=O)N[C@@H](CCCCN)C(N)=O)NC(=O)[C@H](CC2CCCCC2)NC1=O [AzV31] (H-YK[Cha][Cha]C[Tle][Cha][Oic]GHRT[Cha]CK-NH2; disulfide 5-14; N-terminus assumed)	0.146 ± 0.014 µM	0.192 ± 0.024 µM	0.196 ± 0.025 µM	–	–	–
C[C@@H](O)[C@@H]1NC(=O)[C@H](CCCNC(=N)N)NC(=O)[C@H](Cc2c[nH]cn2)NC(=O)[C@@H](CCCNC(=N)N)NC(=O)[C@@H]2C[C@@H]3CCCC[C@@H]3N2C(=O)[C@H](CC2CCCCC2)NC(=O)[C@H](C(C)(C)C)NC(=O)[C@@H](NC(=O)[C@H](CC2CCCCC2)NC(=O)[C@H](CC2CCCCC2)NC(=O)[C@H](CCCCN)NC(=O)[C@@H](N)Cc2ccc(O)cc2)CSSC[C@@H](C(=O)N[C@H](CCCCN)C(N)=O)NC(=O)[C@H](CC2CCCCC2)NC1=O [AzV32] (H-YK[Cha][Cha]C[Tle][Cha][Oic][dR]HRT[Cha]C[dK]-NH2; disulfide 5-14)	–	–	–	0.197 ± 0.09 µM	0.471 ± 0.16 µM	0.169 ± 0.029 µM
C[C@@H](O)[C@@H]1NC(=O)[C@H](CCCNC(=N)N)NC(=O)[C@H](Cc2c[nH]cn2)NC(=O)CNC(=O)[C@@H]2C[C@@H]3CCCC[C@@H]3N2C(=O)[C@H](CC2CCCCC2)NC(=O)[C@@H](CCCNC(=N)N)NC(=O)[C@@H](NC(=O)[C@H](CC2CCCCC2)NC(=O)[C@H](CC2CCCCC2)NC(=O)[C@H](CCCCN)NC(=O)[C@@H](N)Cc2ccc(O)cc2)CSSC[C@@H](C(=O)N[C@H](CCCCN)C(N)=O)NC(=O)[C@H](CC2CCCCC2)NC1=O [AzV33] (H-YK[Cha][Cha]C[dR][Cha][Oic]GHRT[Cha]C[dK]-NH2; disulfide 5-14)	–	–	–	0.0786 ± 0.0045 µM	0.106 ± 0.012 µM	0.1 ± 0.021 µM
C[C@@H](O)[C@@H]1NC(=O)[C@H](CCCNC(=N)N)NC(=O)[C@H](Cc2c[nH]cn2)NC(=O)CNC(=O)[C@@H]2C[C@@H]3CCCC[C@@H]3N2C(=O)[C@H](CC2CCCCC2)NC(=O)[C@H](C(C)(C)C)NC(=O)[C@@H](NC(=O)[C@H](CC2CCCCC2)NC(=O)[C@H](CC2CCCCC2)NC(=O)[C@@H](CCCCN)NC(=O)[C@@H](N)Cc2ccc(O)cc2)CSSC[C@@H](C(=O)N[C@H](CCCCN)C(N)=O)NC(=O)[C@H](CC2CCCCC2)NC1=O [AzV34] (H-Y[dK][Cha][Cha]C[Tle][Cha][Oic]GHRT[Cha]C[dK]-NH2; disulfide 5-14)	–	–	–	0.135 ± 0.021 µM	0.189 ± 0.021 µM	0.196 ± 0.021 µM
C[C@@H](O)[C@@H]1NC(=O)[C@H](CCCNC(=N)N)NC(=O)[C@H](Cc2c[nH]cn2)NC(=O)[C@@H](CCCNC(=N)N)NC(=O)[C@@H]2C[C@@H]3CCCC[C@@H]3N2C(=O)[C@H](CC2CCCCC2)NC(=O)[C@@H](CCCNC(=N)N)NC(=O)[C@@H](NC(=O)[C@H](CC2CCCCC2)NC(=O)[C@H](CC2CCCCC2)NC(=O)[C@H](CCCCN)NC(=O)[C@@H](N)Cc2ccc(O)cc2)CSSC[C@@H](C(=O)N[C@H](CCCCN)C(N)=O)NC(=O)[C@H](CC2CCCCC2)NC1=O [AzV35] (H-YK[Cha][Cha]C[dR][Cha][Oic][dR]HRT[Cha]C[dK]-NH2; disulfide 5-14)	–	–	–	0.0735 ± 0.0037 µM	0.147 ± 0.019 µM	0.126 ± 0.022 µM
